Activity calls are given as the source filed them. The calls are words filed in the database; no cut-off is given here.
What was measured:
[1] = system: Candida albicans; test: Antifungal activity against wild-type Candida albicans SC5314 assessed as reduction in filamentous growth; assay type: functional, organism-based
[2] = system: Candida albicans; test: Downregulation of UME6 gene expression in Candida albicans DSY654 at 4 ug/ml after 1.5 to 6 hrs by RT-qPCR assay; assay type: functional, organism-based
[3] = system: Candida albicans; test: Antifungal activity against Candida albicans DSY654 assessed as reduction in number of adherent fungal cells on human A549 cells after 90 mins by calcofluor White staining based fluorescent microscopy; assay type: functional, organism-based
[4] = system: Candida albicans; test: Upregulation of PDE2 gene expression in Candida albicans DSY654 at 4 ug/ml after 1.5 to 6 hrs by RT-qPCR assay; assay type: functional, organism-based
[5] = system: Candida albicans; test: Downregulation of HWP1 gene expression in Candida albicans DSY654 at 4 ug/ml after 1.5 to 6 hrs by RT-qPCR assay; assay type: functional, organism-based
[6] = system: Candida albicans; test: Upregulation of NRG1 gene expression in Candida albicans DSY654 at 4 ug/ml after 1.5 to 6 hrs by RT-qPCR assay relative to control; assay type: functional
[7] = system: Candida albicans; test: Downregulation of ECE1 gene expression in Candida albicans DSY654 at 4 ug/ml after 1.5 to 6 hrs by RT-qPCR assay; assay type: functional, organism-based
[8] = system: Candida albicans; test: Antifungal activity against Candida albicans DSY654 assessed as inhibition of biofilm formation incubated for 24 hrs by fluorescent microscopy; assay type: functional, organism-based
[9] = system: Candida albicans; test: Antifungal activity against Candida albicans DSY654 assessed as inhibition of massive filamentation at 4 to 32 ug/ml; assay type: functional, organism-based
[10] = system: Candida albicans; test: Antifungal activity against Candida albicans DSY654 assessed as inhibition of yeast to hyphal morphological transition measured at 6 hrs by fluorescent microscopy; assay type: functional, organism-based
[11] = system: Candida albicans; test: Antifungal activity against Candida albicans DSY654 assessed as reduction in filamentous growth; assay type: functional, organism-based
[12] = system: Candida albicans; test: Downregulation of ALS3 gene expression in Candida albicans DSY654 at 4 ug/ml after 1.5 to 6 hrs by RT-qPCR assay; assay type: functional, organism-based
[13] = system: Candida albicans; test: Downregulation of CDC35 gene expression in Candida albicans DSY654 at 4 ug/ml after 1.5 to 6 hrs by RT-qPCR assay; assay type: functional, organism-based
[14] = system: Candida albicans; test: Antifungal activity against Candida albicans DSY654 assessed as inhibition of biofilm formation incubated for 24 hrs by XTT assay; assay type: functional, organism-based
[15] = system: Candida albicans; test: Downregulation of RAS1 gene expression in Candida albicans DSY654 at 4 ug/ml after 1.5 to 6 hrs by RT-qPCR assay; assay type: functional, organism-based

`CC(C)[C@@]1(O)C(=O)C[C@]2(C)CC3=C(C(=O)C[C@@]3(C)O)[C@@H](C)CC[C@H]21` was tested, and the Activity [1] was “inactive”.

In the case of `CC1=C2C[C@]3(C)CC(=O)[C@@](O)(C(C)C)[C@H]3CC[C@H](C)[C@]2(O)CC1=O`, the Activity [1] is reported as “inactive”.

In the case of `CC(=O)O[C@H]1/C(C)=C/[C@@H]2[C@H](C[C@@H](OC(=O)CCc3ccccc3)/C(CO)=C/[C@H]1O)[C@]2(C)CO`, the Activity [1] is reported as “inactive”.

`C=C1[C@@H](O)[C@@H]2[C@H](C[C@@H](O)/C(COC(=O)CCc3ccccc3)=C/[C@@H](O)[C@H]1OC(C)=O)[C@]2(C)CO` was tested, and the Activity [1] was “inactive”.

`CC1=C2C[C@@]3(C)CC(=O)[C@](O)(C(C)C)[C@@H]3CC[C@H](C)[C@@]2(O)CC1=O` was tested, and the Activity [1] was “inactive”.

`C=C1CC[C@H]2[C@@H](/C=C(\C)[C@H](OC(C)=O)[C@H](OC(C)=O)[C@@H]1OC(C)=O)C2(C)C` was tested, and the Activity [2] was “Active”, the Activity [3] was “Dose-dependent effect” and the Activity [4] was “Active”. For the same compound, the Activity [5] was “Active”, the “fold change (FC)” value [6] was >10 and the Activity [7] was “Active”. For the same compound, the Activity [8] was “Dose-dependent effect”, the Activity [9] was “Active” and the Activity [10] was “Dose-dependent effect”. The Activity [11] was “Active”, the Activity [12] was “Active” and the Activity [13] was “Active”. For the same compound, the Activity [14] was “Dose-dependent effect”, the Activity [1] was “inactive” and the Activity [15] was “Active”.

In the case of `CC(=O)OC/C1=C\[C@@H](O)[C@@H](OC(C)=O)/C(C)=C/[C@@H]2[C@H](C[C@H]1OC(=O)CCc1ccccc1)[C@]2(C)CO`, the Activity [1] is reported as “inactive”.

`C=C1CC[C@@H](O)[C@]2(C)CC[C@H]3[C@@H]([C@@H]12)[C@@H](C(C)(C)O)CC[C@@H]3C` was tested, and the Activity [1] was “inactive”.

With `C=C1CC[C@H]2[C@@H](/C=C(\C)CC[C@H]1O)[C@@H](C(C)(C)O)CC[C@@H]2C` the Activity [11] was “Active” and the Activity [1] was “inactive”.

In the case of `C=C1[C@@H](O)[C@@H]2[C@H](C[C@@H](OC(=O)CCc3ccccc3)/C(CO)=C/[C@@H](OC(C)=O)[C@H]1O)[C@]2(C)CO`, the Activity [1] is reported as “inactive”.

`CC(=O)O[C@H]1OC=C(CO)[C@H]2[C@@H]1[C@@]1(CC[C@H]3[C@@H]2[C@@]3(CO)COC(=O)/C=C/c2ccccc2)CO1` was tested, and the Activity [1] was “inactive”.

With `CC(=O)O[C@@H]1/C=C(\CO)[C@H](OC(=O)CCc2ccccc2)C[C@H]2[C@@H](/C=C(\C)[C@@H]1O)[C@@]2(C)CO` the Activity [1] was “inactive”.

For `CC(C)[C@@]1(O)C(=O)C[C@]2(C)C[C@]3(O)C(=CC(=O)[C@H]3C)[C@@H](C)CC[C@H]21`, the Activity [1] was “inactive”.

With `CC(C)[C@]1(O)C(=O)C[C@@]2(C)CC3=C([C@H](C)CC[C@@H]21)[C@H](O)CC3=O` the Activity [1] was “inactive”.

Source: ChEMBL document CHEMBL4619771, “Terpenoids from the Liverwort Plagiochila fruticosa and Their Antivirulence Activity against Candida albicans” (2020)
